Measurements as given in a melting point compilation (Tetko et al.; mined from patent text by program, amines drawn as free bases though some values may be those of a salt).

Row | Compound | melting point [°C]
1 | CCS1(N2CCN(c3ccccc3OC)CC2)C(C)=C(C)c2c1[nH]c(=O)[nH]c2=O (stereo not given) | 196 to 197
2 | COc1cc(Nc2nc(N3CCOCC3)nc(-n3c(C(F)F)nc4c(OC)cccc43)n2)ncn1 | 256 to 259
3 | O=C(O)CN1C(=O)C(=CC2CCCCC2)SC1=S | 191 to 193
4 | CC(C)(CCCc1cccc2cncn12)CC(=O)O | 124 to 129
5 | O=S(=O)(Nc1ccccc1O)c1cc(S(=O)(=O)Nc2ccccc2O)c2cc(O)ccc2c1 | 118 to 120
6 | Oc1cccc(CCNCc2ccccc2)c1 | 86 to 88
7 | COc1ccccc1N1CCN(CCCO)CC1 | 88 to 89
8 | Cc1ccc(C(=O)c2cc(Br)c(CC(=O)O)n2C)cc1 | 162 to 164
9 | C=Cc1c(NC(C)=O)cc(-c2ccc(Cl)c(OC)c2F)nc1C(=O)OC | 143 to 145
10 | O=C(O)c1cc(Oc2ccc(Br)cc2)cc(C(=O)O)c1 | 310 to 320
11 | CN1CC2=C(n3cnc(C#Cc4ccccc4)c3C1)S(=O)C=C2 (stereo not given) | 143 to 144
12 | CCn1cc(C(=O)O)c(=O)c2c(F)c(F)c(N3CCN(C)CC3)c(F)c21 | 221 to 223
13 | CS(=O)(=O)OCCn1c2ccc(O)cc2c2c3c(c(-c4ccccc4)cc21)C(=O)NC3=O | 271 to 276
14 | CCCCc1nc(Cc2ccc(-c3ccccc3C(=O)O)cc2)c(CC(=O)O)c(Cc2ccc(-c3ccccc3C(=O)O)cc2)n1 | 160
15 | CN(C)S(=O)(=O)c1ccc(C(F)(F)F)cc1S(N)(=O)=O | 189 to 191
16 | Nc1c(Cl)c(C(=O)O)nc(Cl)c1Br | 201 to 202
17 | CC(=O)Nc1cnc2c(NC(=O)c3c(Cl)cccc3Cl)cccc2c1 | 244 to 245
18 | CCOC(=O)C1Cc2ccc(OC)c(Cl)c2O1 (stereo not given) | 108 to 110
19 | N=C(c1ccccc1)c1cc(F)cc(NC(=O)/C=C/c2ccccn2)c1 | 205 to 207
20 | COC(=O)c1ccc(OC(=O)c2cc(C)c3c(c2C)C2(CCS3(=O)=O)OCCO2)cc1 | 206 to 208
21 | Cc1ccc(Cn2c3c(c4cc(-c5cccc(C)c5)ccc42)C(=O)C(=O)OC3)cc1 | 216 to 217
22 | CC1=NN=C(c2ccc3ccccc3n2)c2cc3oc(=O)[nH]c3cc2C1 | 304 to 306
23 | CC(=O)Nc1nc(CCc2ccc(NC(=O)OC(C)(C)C)cc2)c(C(=O)NCc2ccc(S(C)(=O)=O)cc2)s1 | 192 to 193
24 | O=C(CCCCCl)Nc1nc2ccccc2[nH]1 | 161 to 163
25 | O=C1CCN(Cc2ccccc2O)CC1C(c1ccccc1)c1ccccc1 (stereo not given) | 109 to 110
26 | CC(C)CCn1c(CN2C(=O)N(C3CC3)Cc3ccccc32)nc2cc(CN)ccc21 | 113
27 | CC(=O)N[C@H]1CC[C@H](CCC(=O)O)CC1 | 193 to 196

Row | Compound | melting point [°C]
28 | CC1Cc2cc(C(=O)O)ccc2C1=O (stereo not given) | 189 to 194
29 | O=C(O)c1c(F)cc(F)c(F)c1C(=O)O | 153 to 155
30 | CCOC(=O)Cn1c(-c2ccc(F)cc2)nc2cccnc21 | 126 to 128
31 | CN(C)C(=O)c1cc(C(C)(C)C)c(O)c(C(C)(C)C)c1 | 173 to 174
32 | CCc1c(C(=O)O)ccc(OCc2ccccc2)c1Cl | 208 to 210
33 | CC1(C)C(C=CC(=O)O)C1C(=O)OCc1ccccc1 (stereo not given) | 69
34 | C(#Cc1cccnc1)C1=CCN(Cc2c[nH]c3ncccc23)CC1 | 170 to 172
35 | CCOC(=O)C1(c2ccccc2)CCN(C(C)=O)C(=O)C1 (stereo not given) | 45 to 46
36 | Cc1cc(N)c([N+](=O)[O-])cc1NCCO | 141
37 | CCOC(=O)c1[nH]c2sc(Cl)cc2c1Cl | 166 to 167
38 | c1ccc2nc(N3CCNCC3)ncc2c1 | 64 to 66
39 | CC(c1ccc(O)cc1)(c1ccc(O)cc1)c1ccc(-c2ccccc2)cc1 | 182 to 183
40 | Oc1ccc(OC[C@@H](O)CNCCc2ccc(-n3c(-c4ccc(C5CCCCC5)cc4)nc4cccnc43)cc2)cc1 | 100 to 102
41 | Cc1ccc2nc(SCC(=O)O)oc2c1 | 144 to 146
42 | CC(C)n1c(=O)[nH]c2c(C(N)=O)nc(-c3cccc(O)c3)nc21 | 338 to 342
43 | Cn1c(=O)nc(Sc2ccccc2)sc1=S | 116 to 118
44 | CNc1nn(C(=O)Cl)c(=O)n1C | 185
45 | CCOC(=O)Cc1ccc(NCCNC(=O)C2Cc3ccccc3N2S(=O)(=O)c2ccc(-c3cc(C(F)(F)F)ccc3Cl)cc2)cc1 (stereo not given) | 55 to 63
46 | O=C(OCc1ccccc1)C1=C(S(=O)c2ccccc2)CC2CC(=O)N12 (stereo not given) | 129 to 131
47 | CC(C)(C)OC(=O)NCCc1cccc(-c2nc(=O)c3ccccc3s2)n1 | 170 to 171
48 | COC(=O)c1ccc(O)c(C(C)(C)C)c1 | 144 to 145
49 | COc1ccc(/C=C(\C#N)c2cccc(Cl)c2)cc1OC1CCCC1 | 98 to 100
50 | COC(=O)c1c(C)c(OC)cc(OC)c1C=O | 164 to 165
51 | COc1ccc(S(=O)(=O)C(CC=C(C)C)(Cc2ccc(OCCN3CCOCC3)cc2)C(=O)NO)cc1 (stereo not given) | 92
52 | Cc1cc(C)cc(NC(=N)Nc2ccccc2C(F)(F)F)c1 | 127
53 | CC(C)(C)c1cc(Cn2nc(-c3ccccc3)oc2=S)cc(C(C)(C)C)c1O | 166

Continued, values first:

Row | melting point [°C] | Compound
54 | 118 to 119 | COC(=O)c1c(C)c(OC)cc(O)c1C=O
55 | 131 to 133 | Cc1cc(C)c(S(=O)(=O)N(C)c2ccccc2CSc2nccn2-c2ccccn2)c(C)c1
56 | 180 to 182 | CCCCCCCCCCOc1cc2oc3c(C(=O)O)cccc3c(=O)c2cc1CCC(=O)O
57 | 158 to 159 | FC(F)(F)c1cccc(CSc2nnc(-c3ccc4ncccc4c3)o2)c1
58 | 61 to 62 | CCCCCC(C)(O)C=CC1CCC(=O)C1CCCCCCC(=O)O (stereo not given)
59 | 161 to 163 | O=C(O)CN1C(=O)O[C@H](c2ccccc2)[C@@H]1c1ccccc1
60 | 236 to 240 | OC1CCc2oc3c(Cl)cc(Br)cc3c2C1 (single isomer, unassigned; (-))
61 | 104 to 106 | c1ccc2c(CSCc3cccc4ccccc34)cccc2c1
62 | 172 to 173 | CCOc1ccc(C(=O)CN2CCOCC2)cc1-c1nc2c(C)cccc2c(=O)[nH]1
63 | 70 to 74 | CCCCCCCCCCOc1ccc(C(=O)O[C@@H]2CC[C@H](NC(=O)[C@H](OC)[C@H](O)[C@@H](O)[C@H](O)/C=C/C(C)(C)C)C(=O)NC2)cc1
64 | 70 to 72 | CCCCNC(=O)NCCC
65 | 190 to 192 | COc1cc(NC(=O)Nc2ccccc2)cc(OC)n1
66 | 70 to 71 | CSc1ccc(C(=O)CBr)cc1F
67 | 48.6 to 49.3 | CCCCCCCCCCc1ccc2cc(OC)ccc2c1
68 | 113 | CCCC(=O)Nc1ccc(OC)c(C(C)=O)c1
69 | 153 | CC(c1ccccc1)N1CC2Cc3cc4ccccc4n3CC2C1 (stereo not given)
70 | 166 to 167 | CC(C)(C)OC(=O)N1CCc2c(n(CCO)c3cc(Cl)cc(Cl)c23)CC1
71 | 174 to 176 | NC(=O)CN1CCC(c2nn(-c3ccc(C(F)(F)F)cc3)c3cc(F)ccc23)CC1
72 | 65 to 68 | C[C@H](COS(C)(=O)=O)NC(=O)OC(C)(C)C
73 | 84 to 85 | COCOc1c(OC)cc(C(S)CS)cc1OC (stereo not given)
74 | 111 to 112 | CC(C)(C)COS(=O)(=O)c1ccc(Oc2c(Cl)cccc2[N+](=O)[O-])cc1
75 | 135 to 137 | COCc1ccc(-c2cn(-c3cc(C(=O)OC)c([N+](=O)[O-])cc3C(F)(F)F)cn2)cc1
76 | 181 to 184 | Cc1ccc(S)c(C=O)c1
77 | 138 to 140 | CN1CCOc2cc3c(cc21)OCC31C(=O)N(CC2CCCO2)c2ccccc21 (stereo not given)

Row | melting point [°C] | Compound
78 | 121 to 122 | CCOc1c(C#N)oc2c3ccccc3n(-c3ccccc3)c12
79 | 135 to 140 | CCc1nc(C)c(C(=O)OC(C)OC(=O)C(C)(C)OC)n1Cc1ccc2oc(-c3ccccc3-c3nnn[nH]3)c(Br)c2c1 (stereo not given)
80 | 77 to 80 | O=C(CCN1C[C@@H](O)[C@H](Oc2ccccc2)C1)c1ccc(F)cc1 (relative stereo)
81 | 98 | COc1cc2c(cc1[N+](=O)[O-])N(CC(=O)N(C)C)C(=O)CN(CC(=O)N(C)C)C2
82 | 204 to 206 | CCCCc1ncc(/C=C(\Cc2ccccc2)C(=O)O)n1Cc1c(F)cccc1Cl
83 | 109 to 110 | Cc1sc(-c2ccccc2)nc1COc1cc(COc2ncccc2CC(=O)O)on1
84 | 129 to 130 | O=C1c2ccc(OCCn3ccnc3)cc2CCC1Cc1ccc(Br)cc1 (stereo not given)
85 | 130 to 132 | COc1ccc(N2CCN(c3ccc(NC(=O)Oc4ccccc4)nc3)CC2)cc1
86 | 60 to 62 | CC#CCOc1cccc(S(=O)(=O)N(C)C(C(=O)NO)c2ccc(OCCCNC(=O)OCC)cc2)c1 (stereo not given)
87 | 79.8 to 80.4 | CCCCN(CCCC12CC3CC(CC(C3)C1)C2)C(=O)NCCCc1ccncc1
88 | 151 to 154 | Cc1ccc([C@@H]2c3c(C)c(N4C(=O)CC(c5ccc(F)cc5)CC4=O)c(C)c(C)c3OC2(C)C)cc1
89 | 210 | Cc1nnc(-c2ccnc3[nH]c(CCc4ccccc4)cc23)o1
90 | 149 to 151 | CCCCCCc1ccc(-c2cnn(C(C)(C)Cc3ccc(C)cc3)c2O)cc1
91 | 126 to 127 | COc1ccc(Br)c(COc2ccc3ccc(OC)cc3c2Cl)c1
92 | 127 to 128 | COc1cccc(CC(=O)O)c1OCc1cc(OC(C)C)nn1Cc1ccc(Cl)cc1Cl
93 | 212 | CCOC(=O)NC(=O)C(=NNc1cc(Cl)c(C(C)(C)C#N)c(Cl)c1)C(=O)NC(=O)OCC
94 | 292 to 293 | CC(C)(CNC(=O)c1ncc[nH]1)c1ccc(C(=O)Nc2cn3cc(C(F)(F)F)ccc3n2)cc1
95 | 157 to 159 | CCCN(C(=O)COc1c(Cl)cccc1Cl)C1CCc2c(ccc(O)c2O)C1 (stereo not given)
96 | > 250 | O=c1[nH]c2cc(N3CCCC3)c(F)cc2c(=O)n1O
97 | 283 to 284 | Cn1c(Oc2ccc(Cl)c(F)c2)nc2c(-c3cccc(C(=O)O)c3)cccc21
98 | 201 to 203 | N#Cc1cccc(-c2nc(-c3cccnc3)no2)n1
99 | 248 to 249 | CCCOc1ccc(/C=C/c2nc3c([nH]2)c(=O)n(CCC)c(=O)n3CCC)cc1
100 | 55 | O=C1NC(=O)C(Nc2ccc(CCNC[C@H](O)c3ccccc3)cc2)S1 (stereo not given in full)
